This assay concerns the target T1, HIV Reverse transcriptase (RT) 66/p51 (Human immunodeficiency virus type 1 group M subtype B, UniProt P04585).
T1 construct: HIV Reverse transcriptase (RT) 66/p51; purchased Worthington
Briefly: RNA dependent DNA polymerase (RDDP) activity of HIV RT, 33P-TTP incorporation on polyrA-oligodT12-18, filter plate. The class given is biochemical.

Compound `Cc1cn([C@H]2C[C@H](N=[N+]=[N-])[C@@H](CO)O2)c(=O)[nH]c1=O` [AZT] yielded an IC50 below 200 nM.

The values are drawn from patent US7553967B2, “1,2-Dihydroquinoline derivatives and method for using the same to treat HIV infections” (Wyeth, priority 2004, dated 2009).
